We go through 9 compounds from PubChem BioAssay (NCI).

Several values for one entry are separate records, joined by “and”; a condition that tells them apart may be missing. Equal entries are not always repeated.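 Cultured in 96-well plates, cells were exposed to test compound for 48 hours across five concentrations. GI50 = concentration required for 50% inhibition of growth. The concentration for full growth arrest is given as TGI.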

Common to all, as to assay: growth of human tumour cells (NCI), 48 h
Assay [1] relates to HCT-15 colon.
The subject of assay [2] is OVCAR-3 ovarian.
The test system of assay [3] is SK-OV-3 ovarian.
For assay [4], the system named is UO-31 renal.
In assay [5] the test system is A498 renal.
Assay [6] concerns SF-539 CNS.
The test system of assay [7] is HCC-2998 colon.
Assay [8] has as its system DU-145 prostate.
Assay [9] has as its system OVCAR-5 ovarian.
Assay [10] concerns KM12 colon.

In the case of `Cn1cnc([N+](=O)[O-])c1Sc1ncnc2nc[nH]c12`, the GI50 in [1] is 14.2 µM and 19.6 µM; in assay [2], 2.92 µM and 3.23 µM; in assay [3] it was 0.471 µM and 0.867 µM; in [4], 2.39 µM and 14.8 µM; in assay [5], 8.55 µM and 26.1 µM; in assay [6], 4.81 µM and 3.26 µM. Moreover, the GI50 in assay [7] was 5.64 µM; in assay [8] it was 3.03 µM and 4.36 µM; in assay [9], 8.42 µM and 53.2 µM; in [10], 4.25 µM and 10.8 µM. Also, the TGI in assay [1] was more than 100 µM; in [2], 75.9 µM and > 80.2 µM; in assay [3] it was 39.6 µM and > 100 µM; in [4], more than 100 µM; in [5], 82 µM and > 100 µM; in [6], more than 100 µM. The TGI in assay [7], in assay [8], in [9] and in assay [10] was more than 100 µM throughout.
For the compound `c1ccc2c(NCCCCCCCCNc3c4ccccc4nc4ccccc34)c3ccccc3nc2c1`, the TGI in assay [1] worked out at 2.48 µM; in [2] it was 3.22 µM; in assay [3], 2.71 µM; in [4], 2.76 µM; in assay [5] it was 2.68 µM; in assay [6], 1.15 µM. In addition, the TGI amounted to 3.61 µM in [7], 1.94 µM in assay [8], 2.2 µM in assay [9] and 1.59 µM in assay [10].
For `OC1CCC(Oc2cccc3cnc(Nc4ccc5nc[nH]c5c4)nc23)CC1` (stereo unspecified), the GI50 in assay [1] was 0.508 µM; in assay [2], 0.423 µM; in assay [3], 3.35 µM; in assay [4] it was 0.227 µM; in assay [5], 0.335 µM; in assay [6], 0.215 µM. In addition, the GI50 is 0.708 µM in assay [7], 0.246 µM in assay [8], 0.327 µM in assay [9] and 0.23 µM in assay [10]. Besides, the TGI in [1] came out at 16.7 µM; in assay [2] it was 19.4 µM; in [3], 47.8 µM; in assay [4] it was 1.88 µM; in [5], 0.866 µM; in assay [6] it was 0.708 µM. In addition, the TGI amounted to 9.09 µM in assay [7], 17.2 µM in assay [8], 30.7 µM in assay [9] and 11.9 µM in assay [10].
`CN(C)CN1C(=O)S/C(=C2\C(=O)N(CN(C)C)c3ccccc32)C1=O`: the TGI was more than 100 µM in [1]; more than 100 µM in assay [2]; more than 100 µM in [3]; 91.8 µM in [4]; more than 100 µM in assay [5]; more than 100 µM in assay [6]. The TGI in [7], in assay [8], in [9] and in [10] was more than 100 µM throughout.
On to `O=C(Nc1ccc(Br)cc1)c1cc(Br)cc(Br)c1O`, for which the GI50 in [1] was 3.2 µM; in [2] it was 2.95 µM; in [3], 3.14 µM; in assay [4] it was 3.1 µM; in assay [5], 1.82 µM; in assay [6], 2.89 µM. Also, the GI50 is 3.35 µM in assay [7], 3.56 µM in assay [8], 2.7 µM in [9] and 2.59 µM in assay [10]. For the same compound, the TGI in [1] is 13.5 µM; in assay [2] it was 8 µM; in [3], more than 100 µM; in assay [4], 11.5 µM; in assay [5], 4.37 µM; in [6], 12.4 µM. Also, the TGI in assay [7] is 10.1 µM; in assay [8], 19.9 µM; in assay [9] it was 19.6 µM; in assay [10] it was 8.09 µM.
On to `CN(C)CCNC(=O)c1cccc(CO)c1[N+](=O)[O-]`, for which the TGI in assay [1], in assay [2], in assay [3], in assay [4], in assay [5] and in assay [6] was more than 100 µM throughout. For the same compound, the TGI in assay [7], in assay [8], in assay [9] and in assay [10] was more than 100 µM throughout.
For `CC(O)C(NC(=O)C(CS)NC(=O)C(CO)NC(=O)C(CCCCN)NC(=O)C(Cc1c[nH]c2ccccc12)NC(=O)C(Cc1ccc(O)cc1)NC(=O)C(CS)NC(=O)C(N)Cc1ccccc1)C(N)=O` (stereo unspecified), the TGI in [1] is > 25 µM and 56.2 µM; in assay [2], > 25 µM and 50 µM; in [3] it was more than 25 µM; in [4], more than 25 µM; in [5], > 25 µM and 61.7 µM; in assay [6], > 25 µM and 68.9 µM. For the same compound, the TGI is > 25 µM and 57.7 µM in [7]; more than 25 µM in assay [8]; more than 25 µM in assay [9]; > 25 µM and 58 µM in [10]. The GI50 in assay [2] was 21.3 µM.
As for `O=C(/C=C/c1ccc([N+](=O)[O-])o1)NNC(=O)c1cc2ccccc2cc1O`, the GI50 was 0.714 µM in [1]; 0.967 µM in assay [2]; 4.23 µM in [3]; 1.2 µM in assay [4]; 2.11 µM in assay [5]; 2.06 µM in assay [6]. Further, the GI50 in [7] was 1.32 µM; in assay [8], 0.998 µM; in assay [9], 13 µM; in assay [10], 2.18 µM. The TGI in [1] was 2.91 µM; in assay [2] it was more than 21 µM; in assay [3] it was more than 100 µM; in assay [4], 3.78 µM; in assay [5], 6.17 µM; in assay [6], 7.52 µM. In addition, the TGI in assay [7] is 3.21 µM; in assay [8] it was 4.3 µM; in assay [9] it was more than 100 µM; in assay [10], more than 23 µM.
Regarding `O=Nc1c2cccnc2n2nnc3ccc(Cl)cc3c12`, the GI50 was 0.94 µM in assay [1]; 0.447 µM in assay [2]; 5.37 µM in [3]; 1.05 µM in assay [4]; 3.34 µM in assay [5]; 3.68 µM in assay [6]. Besides, the GI50 in assay [7] is 1.72 µM; in assay [8] it was 0.893 µM; in [9] it was 3.6 µM; in assay [10], 1.54 µM. Moreover, the TGI was determined as 5.75 µM in assay [1]; 1.45 µM in assay [2]; 20.4 µM in [3]; 9.51 µM in assay [4]; 10.3 µM in assay [5]; 10.5 µM in [6]. The TGI in assay [7] worked out at 4.95 µM; in [8] it was 2.93 µM; in assay [9] it was 14.5 µM; in assay [10] it was 4.75 µM.
